# Assay results reported in patent US9434711B2 (Janssen Pharmaceutica, NV, priority 2007, dated 2016).
# “And” between values parts separate entries of the source, which are not always exact repeats. Identical values can stand only once.
# Legend:
# Male Sprague Dawley rats [1] = assay: Inhibition of Icilin-Induced "Wet-Dog" Shakes in Rats; format: in vivo, rat; details: Rattus norvegicus, po, HPbCD, Na salt form
# Protocol: Male Sprague Dawley rats (220-450 g, Charles River Labs, n=6-9/treatment) were used to evaluate the ability of selected compounds of the formula (I) to block icilin-induced “wet-dog” shakes (WDS). Compounds of the formula (I) were administered in an appropriate vehicle, such as hydroxypropyl-β-cyclodextrin (HPβCD), methocellulose, 10% Solutol, or H2O, or the like, by the appropriate route, i.p. or p.o., 30-120 minutes before icilin. Icilin was administered in PEG-400 or 10% solutol/H2O, at 1.0 or 3.0 mg/kg, i.p. and spontaneous “wet-dog” shakes were counted 10-20 minutes post-icilin. Results are presented as a percent inhibition of shakes, which was calculated as [1-(test compound WDS count/vehicle WDS count)]×100.
# Male Sprague Dawley rats [2] = assay: Rightward Shift of Icilin Dose Effect Curve in Rats; format: in vivo; details: Rattus norvegicus; compound 3 mg/kg p.o., 60 pre-icilin; icilin i.p.; read-out: Icilin ED50, mg/kg, i.p., compound pretreatment
# Protocol: Male Sprague Dawley rats (200-400 g, Charles River Labs, n=6-9/treatment) were administered icilin in a suitable vehicle (e.g. PEG-400, 10% Solutol) at 0.1-30 mg/kg, i.p. Spontaneous “wet-dog” shakes were counted 10-20 minutes post-icilin in order to generate a icilin dose-effect curve. A compound of the present invention was administered orally in hydroxypropyl-β-cyclodextrin 60 minutes before icilin challenge to assess the compound's ability to inhibit spontaneous “wet-dog” shakes (WDS) produced by a range of icilin doses. The ED50 of the icilin dose-effect curve generated in the presence of TRPM8 antagonist may be compared to that generated in the presence of vehicle to determine the magnitude of rightward shift as shown below in Table 7.
# Sprague-Dawley rats = assay: CFA-Induced Paw Radiant Heat Hypersensitivity; format: in vivo, rat; details: HPbCD, Na salt form
# Protocol: Intraplantar injection of complete Freund's adjuvant (CFA) in rodents results in a long-lasting inflammatory reaction, characterized by a pronounced hypersensitivity to both thermal and mechanical stimuli. This hypersensitivity peaks between 24-72 hours following injection and can last for several weeks. To assess whether test compounds of the formula (I) reverse established hypersensitivity, a 100 μL intraplantar injection of CFA (suspended in a 1:1 emulsion of saline and heat-killed Mycobacterium tuberculosis in mineral oil) can be injected into a single hind paw of Sprague-Dawley rats (typically males ranging from 150-350 g). This paradigm also may be conducted with a multiple dosing or a prophylactic dosing regime designed to alter the course of hyperalgesia development. This test predicts the analgesic, anti-allodynic and antihyperalgesic effect of numerous effective clinical agents, including acetaminophen, NSAIDS such as aspirin and ibuprofen, and opioids, such as morphine.
# Each rat is placed in a test chamber on a warm glass surface and allowed to acclimate for approximately 10 minutes. A radiant thermal stimulus (beam of light) is then focused through the glass onto the plantar surface of each hind paw in turn. The thermal stimulus is automatically shut off by a photoelectric relay when the paw is moved or when the cut-off time is reached (20 seconds for radiant heat at […]). An initial (baseline) response latency to the thermal stimulus is recorded for each animal prior to the injection of CFA. Twenty-four hours following intraplantar CFA injection, the response latency of the animal to the thermal stimulus is then re-evaluated and compared to the animal's baseline response time. […] Immediately following the post-CFA latency assessment, test compound or vehicle (usually Solutol, hydroxypropyl methylcellulose, hydroxypropyl beta-cyclodextrin or PEG-400) is administered i.p. or p.o. to rats. Post-compound treatment withdrawal latencies are assessed at fixed time intervals, typically 30, 60 and 120 minutes. The percent reversal (% R) of hypersensitivity is calculated according to the following formula: % Reversal=(Treatment Response-CFA Response)/(Baseline Response-CFA Response)×100.
# canine TRPM8 = canine TRPM8 (Canis lupus familiaris, UniProt Q1A7N1); assay: TRPM8 Patch Clamp Assays (whole-cell, menthol or cold activation); format: cell-based
# Sequence of canine TRPM8 (Q1A7N1 1-1104): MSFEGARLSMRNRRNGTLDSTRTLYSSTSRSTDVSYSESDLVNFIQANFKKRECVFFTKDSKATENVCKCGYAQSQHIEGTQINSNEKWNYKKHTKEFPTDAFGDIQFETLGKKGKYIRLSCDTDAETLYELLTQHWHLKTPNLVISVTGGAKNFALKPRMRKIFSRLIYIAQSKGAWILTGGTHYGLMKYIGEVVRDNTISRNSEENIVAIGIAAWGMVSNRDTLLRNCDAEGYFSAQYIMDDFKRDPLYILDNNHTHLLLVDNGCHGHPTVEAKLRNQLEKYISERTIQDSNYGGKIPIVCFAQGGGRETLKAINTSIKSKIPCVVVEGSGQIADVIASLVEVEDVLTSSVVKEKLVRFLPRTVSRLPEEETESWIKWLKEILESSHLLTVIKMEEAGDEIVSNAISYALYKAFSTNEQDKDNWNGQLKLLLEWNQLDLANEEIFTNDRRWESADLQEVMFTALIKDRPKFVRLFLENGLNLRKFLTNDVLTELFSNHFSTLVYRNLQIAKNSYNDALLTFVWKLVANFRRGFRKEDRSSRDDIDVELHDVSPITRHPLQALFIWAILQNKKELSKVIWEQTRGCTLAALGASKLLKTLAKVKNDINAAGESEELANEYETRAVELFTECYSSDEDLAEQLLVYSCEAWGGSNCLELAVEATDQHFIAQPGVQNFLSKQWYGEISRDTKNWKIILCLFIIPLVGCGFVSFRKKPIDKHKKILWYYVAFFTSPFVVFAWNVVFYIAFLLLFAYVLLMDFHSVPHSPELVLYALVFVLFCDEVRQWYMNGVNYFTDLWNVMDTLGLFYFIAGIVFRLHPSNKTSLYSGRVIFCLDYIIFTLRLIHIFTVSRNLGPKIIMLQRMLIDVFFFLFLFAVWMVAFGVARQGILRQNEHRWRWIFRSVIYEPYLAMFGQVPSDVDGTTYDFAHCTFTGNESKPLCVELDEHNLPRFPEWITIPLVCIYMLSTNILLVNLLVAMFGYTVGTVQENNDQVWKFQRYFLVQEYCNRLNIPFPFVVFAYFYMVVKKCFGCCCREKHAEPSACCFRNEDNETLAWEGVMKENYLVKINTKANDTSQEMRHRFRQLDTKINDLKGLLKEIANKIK
# Protocol: For patch clamp experiments, HEK293 cells are stably transfected with canine TRPM8 and cultured in DMEM supplemented with 10% fetal bovine serum, 100 units/ml penicillin, 100 μg/ml streptomycin and 1 mg/ml G418. Cells are maintained at 37° C. and in 5% CO2.
# The extracellular solution contains (in mM): NaCl, 132; EGTA, 1; KCl, 5.4; MgCl2, 0.8; HEPES, 10; glucose, 10; pH=7.4. Recordings are performed using the conventional whole-cell patch clamp technique, 1-2 days after plating cells onto glass coverslips at densities appropriate for single cell recording. Currents are amplified by a patch clamp amplifier and filtered at 2 kHz (Axopatch 200B, Molecular Devices, Union City, Calif.). Menthol (100 μM) is applied to the cell at 0.5 ml/min via a gravity-fed perfusion system. Recordings involving menthol activation are performed at 22° C.
# In experiments where temperatures are varied, temperature ramps are generated by cooling the perfusate in an in-line cooler (Model SC-20, Warner Instruments, Hamden, Conn.) controlled by a temperature controller (Model CL-100, Warner Instruments). The temperature in the vicinity of the recorded cell is measured with a custom-made miniature thermo-microprobe connected to a monitoring thermometer (Model TH-8, Physitemp, Clifton, N.J.), and sampled using Digidata 1322A and pClamp 9.0 (Molecular Devices), as are the currents concurrently measured in the whole-cell patch clamp mode. The current is continuously sampled (at 100 Hz) at a holding potential of −60 mV.
# Compounds of the formula (I) are diluted from 10 mM DMSO stocks (stored at −20° C.) into an extracellular solution either containing 100 μM menthol or subjected to cooling. Increasing concentrations of a compound are applied to a cell in a cumulative manner and concentration-dependent responses are measured after steady-state activation is achieved by either 100 μM menthol or cooling to 10° C. A saturating concentration of a reference antagonist is applied at the end of an experiment (either in the presence of 100 μM menthol or 10° C. temperature) to establish the baseline from which all the other measurements are subtracted.
# Percentage inhibition by a compound is calculated as follows:
# 100×(1−Icomp/I0); where Icomp and I0 are steady-state current amplitudes in either the presence or absence of a concentration of compounds of the formula (I).
smiles,measurement,setting,value
"Cc1c(N(Cc2ccc(F)c(C(F)(F)F)c2)S(=O)(=O)c2ccc(C(=O)O)cc2)sc2ccccc12 [Compound 306, N-(3-Methyl-benzo[b]thiophen-2-yl)-N-(4-fluoro-3-trifluoromethyl-benzyl)-4-carboxy-benzenesulfonamide]",ED50,"Male Sprague Dawley rats [1]; 1 h, 60 min pre-icilin",2.5 mg/kg
same,ED50,Male Sprague Dawley rats [2],2.96 mg/kg
same,Percent Reversal,"Sprague-Dawley rats; dose 3 p.o., treatment time 100 min",31%
same,Percent Reversal,"Sprague-Dawley rats; dose 5.6 p.o., treatment time 100 min",76%
same,Percent Reversal,"Sprague-Dawley rats; dose 10 p.o., treatment time 100 min",91% and 93%
same,Percent Reversal,"Sprague-Dawley rats; dose 30 p.o., treatment time 100 min",59%
same,IC50,canine TRPM8; cold stimulation,2300 pM
same,inhibition at 0.001 µM,canine TRPM8; cold stimulation,22.4%
same,inhibition at 0.003 µM,canine TRPM8; cold stimulation,60.1%
same,inhibition at 0.01 µM,canine TRPM8; cold stimulation,86.2%
same,inhibition at 0.03 µM,"canine TRPM8; cold stimulation, 0.03 μM",97.3%
same,IC50,canine TRPM8; menthol stimulation,1100 pM
same,inhibition at 0.0003 µM,canine TRPM8; menthol stimulation,11.6%
same,inhibition at 0.001 µM,canine TRPM8; menthol stimulation,47.3%
same,inhibition at 0.003 µM,canine TRPM8; menthol stimulation,78%
same,inhibition at 0.01 µM,canine TRPM8; menthol stimulation,94.9%
"Cc1c(N(Cc2ccc(OC(F)(F)F)cc2)S(=O)(=O)c2ccc(C(=O)O)cc2)sc2ccccc12 [Compound 496, N-(3-Methyl-benzo[b]thiophen-2-yl)-N-(4-trifluoromethoxy-benzyl)-4-carboxy-benzenesulfonamide]",ED50,"Male Sprague Dawley rats [1]; 2 h, 120 min pre-icilin",2.5 mg/kg
same,Percent Reversal,"Sprague-Dawley rats; dose 1 p.o., treatment time 60 min",9%
same,Percent Reversal,"Sprague-Dawley rats; dose 3 p.o., treatment time 60 min",−10%
same,Percent Reversal,"Sprague-Dawley rats; dose 5.6 p.o., treatment time 60 min",10%
same,Percent Reversal,"Sprague-Dawley rats; dose 30 p.o., treatment time 60 min",30%
same,IC50,canine TRPM8; cold stimulation,554 pM
same,inhibition at 0.0003 µM,canine TRPM8; cold stimulation,21.6%
same,inhibition at 0.001 µM,canine TRPM8; cold stimulation,77.7%
same,inhibition at 0.003 µM,canine TRPM8; cold stimulation,96.4%
same,IC50,canine TRPM8; menthol stimulation,183 pM
same,inhibition at 0.0001 µM,"canine TRPM8; menthol stimulation, 0.0001 μM",27.5%
same,inhibition at 0.0003 µM,canine TRPM8; menthol stimulation,68.6%
same,inhibition at 0.001 µM,canine TRPM8; menthol stimulation,95.8%
same,inhibition at 0.003 µM,canine TRPM8; menthol stimulation,99.6%
